16 compounds from PubChem BioAssay (NCI) can be followed below.

Assay in all cases: growth of human tumour cells (NCI), 48 h
The subject of assay [1] is HCC-2998 colon.
Assay [2] concerns HOP-62 NSCLC.
Assay [3] has as its system M14 melanoma.
Assay [4] has as its system SF-268 CNS.
Assay [5] concerns SK-MEL-5 melanoma.
Assay [6] relates to SK-OV-3 ovarian.
In assay [7] the test system is SN12C renal.
For assay [8], the system named is SNB-19 CNS.
The subject of assay [9] is U251 CNS.
In assay [10] the test system is UACC-257 melanoma.

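48-hour exposure; five concentrations; linearly interpolated endpoints. Here, GI50 denotes the concentration required for 50% inhibition of growth. Definition used: TGI = concentration required for complete inhibition of growth.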

As for `CC(C)Cc1ccc(C(C)/C=C2\CCC(CN3CCCC3)C2=O)cc1` (stereo unspecified), the TGI in assay [1] turned out to be 19.3 µM; in assay [2] it was 26.1 µM; in [3], 29.6 µM; in [4] it was 12.3 µM; in assay [5] it was 28 µM; in [6] it was 33.9 µM. Moreover, the TGI in assay [7] is 13.3 µM; in assay [8], 26.4 µM; in [9], 17.9 µM; in assay [10] it was 31.1 µM.
For the compound `CC(C)c1cccc(C(C)C)c1N=C(N)C#N`, the TGI in [1], in assay [2], in [3], in assay [4], in assay [5] and in [6] was greater than 100 µM in each case. Further, the TGI in assay [7] is greater than 100 µM; in [8], greater than 100 µM; in [9], greater than 93.2 µM; in [10] it was greater than 79.6 µM.
As to `c1ccc2c(c1)nnn2CNc1ccc(N2CCOCC2)cc1`, the TGI in assay [1], in assay [2], in [3], in [4], in assay [6] and in assay [7] was greater than 100 µM throughout. The TGI in [8], in assay [9] and in assay [10] was greater than 100 µM throughout.
Take `CCOC(=O)/C(C#N)=C\C=C1/C=CNC2=NCCN21`: the TGI in assay [1], in [2], in assay [3], in assay [4], in [5] and in [6] was greater than 100 µM in each case. Moreover, the TGI in assay [7], in assay [8], in assay [9] and in [10] was greater than 100 µM in each case.
In the case of `N=C1C(c2nc3ccccc3s2)=C(O)CN1c1ccc(Cl)cc1Cl`, the GI50 in assay [1] is 10400 nM; in assay [2], 13900 nM; in [3], 23700 nM; in assay [4], 89 µM; in assay [5] it was 19200 nM; in [6], 32200 nM. For the same compound, the GI50 in [7] was 13.5 µM; in [8], 26300 nM; in [9], 10100 nM; in [10], 7 µM. Further, the TGI in [1] was 31.1 µM; in assay [2], 38 µM; in assay [3], greater than 100 µM; in assay [4], greater than 100 µM; in assay [5], greater than 100 µM; in [6] it was greater than 100 µM. For the same compound, the TGI in [7] was 32.4 µM; in assay [8], 80.9 µM; in assay [9] it was 29.9 µM; in assay [10], 45.3 µM.
For `CC1=C2C(=O)C(C)(C)C=C2C(=O)[C@](C)(O)C12CC2`, the TGI in [1] is greater than 1 µM; in assay [2] it was greater than 1 µM; in [3], greater than 1 µM; in [4], greater than 1 µM; in [5], greater than 0.612 µM; in assay [6], greater than 1 µM. In addition, the TGI in [7], in assay [8], in assay [9] and in assay [10] was greater than 1 µM in each case.
As for `C#Cc1cccc(Nc2ncnc3ccc(-c4cnc(Cl)c(NS(C)(=O)=O)c4)cc23)c1`, the GI50 was 416 nM in assay [1]; 292 nM in assay [2]; 368 nM in assay [3]; 0.155 µM in assay [4]; 243 nM in [5]; 206 nM in assay [6]. The GI50 in [7] is 0.292 µM; in assay [8] it was 374 nM; in assay [9] it was 284 nM; in assay [10], 0.307 µM. Further, the TGI in [1] was found to be 1.78 µM; in [2] it was 10.7 µM; in assay [3], 2.41 µM; in assay [4], 1.67 µM; in assay [5], 0.704 µM; in [6], 1.38 µM. For the same compound, the TGI in assay [7] is greater than 54 µM; in [8] it was 5.7 µM; in assay [9], 2.68 µM; in [10], 6.57 µM.
Take `C/C(=N\NS(=O)(=O)c1ccc(C)cc1)c1c(O)cc(C)oc1=O`: the TGI in [1], in assay [2], in assay [3], in assay [4], in assay [5] and in [6] was greater than 100 µM in each case. For the same compound, the TGI in assay [7], in assay [8], in assay [9] and in assay [10] was greater than 100 µM throughout.
As to `O=C(c1cc2c(C(F)(F)F)onc2c2ccccc12)C(F)(F)F`, the TGI is 60.4 µM in assay [1]; 11.3 µM in [2]; greater than 58.6 µM in assay [3]; 19.9 µM in assay [4]; 15.5 µM in [5]; 46.7 µM in assay [6]. Also, the TGI in assay [7] is 7.85 µM; in assay [8], greater than 27.9 µM; in assay [9], 4.76 µM; in assay [10] it was 47.5 µM.
Turning to `NC(=O)c1cc(Cl)ccc1NC(=O)c1ccccc1-c1ccccc1`, the GI50 in [1] was 2990 nM; in [2] it was 902 nM; in assay [3] it was 427 nM; in assay [4] it was 5.38 µM; in [5], 425 nM; in assay [6], 677 nM. The GI50 in [7] is 1.78 µM; in assay [8], 709 nM; in assay [9] it was 650 nM; in [10], 12.8 µM. The TGI in assay [1] was 31.6 µM; in assay [2] it was greater than 100 µM; in [3] it was 3.96 µM; in assay [4] it was greater than 100 µM; in [5] it was 15.9 µM; in assay [6], 11.3 µM. For the same compound, the TGI in [7] is greater than 100 µM; in [8], greater than 100 µM; in assay [9], greater than 100 µM; in assay [10], 73.2 µM.
For `CCC(O)(c1ccc(OC)cc1)C(c1ccc(OCc2ccccc2)cc1)c1ccc(OCc2ccccc2)cc1` (stereo unspecified), the TGI in assay [1], in [2], in assay [3], in assay [4], in assay [5] and in assay [6] was greater than 100 µM each time. Also, the TGI in assay [7], in [8], in [9] and in [10] was greater than 100 µM each time.
In the case of `Cc1cccc2c1NC(=O)[C@@]21[C@H](C(=O)c2ccccc2)[C@]2(C(=O)Nc3ccccc32)[C@H]2CCCN21`, the GI50 in assay [1] was 49500 nM; in assay [2], 26700 nM; in [3], 43300 nM; in [4], 30.8 µM; in assay [5], 84700 nM; in assay [6] it was 43300 nM. Moreover, the GI50 is 19200 nM in assay [8], 28000 nM in assay [9] and greater than 100 µM in assay [10]. Besides, the TGI in assay [1], in assay [2], in [3], in assay [4], in [5] and in [6] was greater than 100 µM each time. For the same compound, the TGI is greater than 100 µM in assay [8], 92 µM in assay [9] and greater than 100 µM in assay [10].
Turning to `CCCCCCCC(=O)OCC1OC(n2cc(F)c(=O)[nH]c2=O)C(NC(=O)OCc2ccccc2)C(OC(=O)CCCCCCC)C1O` (stereo unspecified), the TGI in assay [1] was greater than 100 µM; in assay [2], greater than 100 µM; in assay [3] it was 91.7 µM; in [4], greater than 100 µM; in assay [5], 11.1 µM; in [6], greater than 100 µM. Further, the TGI in assay [7] was 27.4 µM; in assay [9], 60.9 µM; in assay [10], greater than 100 µM.
Regarding `O=S(=O)(NCCCNc1cc(-c2cn(-c3ccccc3)nc2-c2cccc(O)c2)ccn1)c1cccc2ccccc12`, the GI50 in assay [1] was 1750 nM; in assay [2], 2450 nM; in assay [3], 2140 nM; in assay [4], 3.02 µM; in [5], 1570 nM; in assay [6], 4830 nM. The GI50 in assay [7] was 4.8 µM; in assay [8] it was 5100 nM; in [9], 1780 nM. Further, the TGI in assay [1] is 3.45 µM; in assay [2], 12.9 µM; in assay [3], 5.3 µM; in [4], 40.8 µM; in [5], 3.41 µM; in assay [6] it was greater than 100 µM. The values for the TGI in assay [7], in assay [8] and in [9] were greater than 100 µM, greater than 100 µM and 13.1 µM, respectively.
Consider `Cc1cccc2c1O/C(=C\c1ncc([N+](=O)[O-])n1C)C2=O`, for which the GI50 in assay [1] is 881 nM; in assay [2], 599 nM; in assay [3], 169 nM; in [4], 0.215 µM; in assay [5], 152 nM; in assay [6] it was 812 nM. In addition, the GI50 is 615 nM in [8], 371 nM in assay [9] and 0.542 µM in assay [10]. In addition, the TGI in assay [1] worked out at 3.59 µM; in [2] it was 1.97 µM; in [3], 0.5 µM; in assay [4], 0.942 µM; in [5] it was 0.367 µM; in assay [6], 3.83 µM. In addition, the results for the TGI in assay [8], in assay [9] and in assay [10] were 4.6 µM, 1.64 µM and 5.2 µM, respectively.
Regarding `C=CCCC(C)N(C(=O)OC(C)(C)C)S(=O)(=O)c1ccc(C)cc1` (stereo unspecified), the TGI in [1], in assay [2], in assay [3], in assay [4], in assay [6] and in assay [7] was greater than 100 µM in each case. For the same compound, the TGI in assay [8], in assay [9] and in assay [10] was greater than 100 µM in each case.
